According to ChEMBL document CHEMBL1201862, “PubChem BioAssay data set” (2004):
Activity calls are given as the source filed them.

What was measured:
[1] = Luminescence Cell-Based Dose Confirmation HTS to Identify Inhibitors of Platelet Dense Granule Release. [Related pubchem assays: 1663 (Primary HTS), 1678 (Summary of Project)]; type: functional
[2] = target: Luciferin 4-monooxygenase (Photinus pyralis, UniProt P08659); assay: firefly luciferase enzyme inhibitors, dose response, biochemical, luminescence (AID 1891)
Protein RecA = target: T1, Protein RecA (Mycobacterium tuberculosis, UniProt P9WHJ3); assay: Fluorescence Cell-Free Homogeneous Dose Retest to Identify Inhibitors of RecA-Intein Splicing Activity. [Related pubchem assays (depositor defined):AID2097, AID2223, AID489010, AID492950]; type: functional
T1 sequence (P9WHJ3 whole entry): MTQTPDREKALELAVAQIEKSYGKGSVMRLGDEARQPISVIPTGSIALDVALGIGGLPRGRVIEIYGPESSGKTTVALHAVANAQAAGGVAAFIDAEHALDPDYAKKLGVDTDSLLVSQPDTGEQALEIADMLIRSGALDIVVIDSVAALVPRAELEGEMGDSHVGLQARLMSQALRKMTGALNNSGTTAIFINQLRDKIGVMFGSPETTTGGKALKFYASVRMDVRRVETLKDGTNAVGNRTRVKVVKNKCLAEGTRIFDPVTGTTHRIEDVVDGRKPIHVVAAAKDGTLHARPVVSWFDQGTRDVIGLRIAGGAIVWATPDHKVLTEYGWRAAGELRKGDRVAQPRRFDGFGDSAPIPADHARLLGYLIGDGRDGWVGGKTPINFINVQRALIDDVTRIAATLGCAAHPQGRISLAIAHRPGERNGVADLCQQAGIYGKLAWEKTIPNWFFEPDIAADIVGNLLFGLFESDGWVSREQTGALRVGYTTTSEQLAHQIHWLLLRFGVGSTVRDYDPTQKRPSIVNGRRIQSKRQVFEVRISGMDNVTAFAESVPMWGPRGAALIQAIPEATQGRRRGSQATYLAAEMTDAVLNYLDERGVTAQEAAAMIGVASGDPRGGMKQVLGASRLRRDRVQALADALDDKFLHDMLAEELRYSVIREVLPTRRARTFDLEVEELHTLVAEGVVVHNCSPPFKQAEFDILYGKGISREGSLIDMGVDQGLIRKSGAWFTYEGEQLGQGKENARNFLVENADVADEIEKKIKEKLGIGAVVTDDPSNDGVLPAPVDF

[3] = target: T2, Replicative DNA helicase DnaB (Mycobacterium tuberculosis, UniProt P9WMR3); assay: DnaB intein splicing inhibitors, dose response, biochemical, cell-free fluorescence (AID 449749); type: functional
T2 sequence (P9WMR3 whole entry): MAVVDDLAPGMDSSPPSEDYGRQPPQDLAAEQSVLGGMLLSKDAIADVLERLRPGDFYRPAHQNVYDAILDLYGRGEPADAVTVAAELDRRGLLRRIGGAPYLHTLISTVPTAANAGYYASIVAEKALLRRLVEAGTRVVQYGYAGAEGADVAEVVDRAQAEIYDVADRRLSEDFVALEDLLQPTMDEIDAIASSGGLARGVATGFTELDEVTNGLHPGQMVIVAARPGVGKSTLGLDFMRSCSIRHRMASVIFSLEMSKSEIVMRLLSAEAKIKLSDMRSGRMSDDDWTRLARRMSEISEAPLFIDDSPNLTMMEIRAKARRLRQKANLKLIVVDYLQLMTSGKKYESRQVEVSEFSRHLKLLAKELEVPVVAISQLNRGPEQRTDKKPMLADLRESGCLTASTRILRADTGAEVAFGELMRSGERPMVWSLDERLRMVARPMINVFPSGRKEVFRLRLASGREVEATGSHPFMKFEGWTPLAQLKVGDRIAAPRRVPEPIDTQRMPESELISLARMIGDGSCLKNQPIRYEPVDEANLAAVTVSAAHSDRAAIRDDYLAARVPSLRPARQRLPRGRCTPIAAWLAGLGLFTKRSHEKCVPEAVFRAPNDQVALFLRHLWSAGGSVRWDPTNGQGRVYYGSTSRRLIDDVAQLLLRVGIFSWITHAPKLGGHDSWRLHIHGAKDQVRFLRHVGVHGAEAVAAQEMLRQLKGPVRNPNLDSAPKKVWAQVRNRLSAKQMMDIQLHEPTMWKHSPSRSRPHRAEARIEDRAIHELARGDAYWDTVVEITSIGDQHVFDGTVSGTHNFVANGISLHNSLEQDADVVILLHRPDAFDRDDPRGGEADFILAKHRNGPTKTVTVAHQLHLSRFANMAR

[4] = inhibitors of firefly luciferase expression or activity, dose response, H4 neuroglioma cells, luminescence (AID 1990); type: functional, cell-based
[5] = inhibitors of SNCA 5'UTR-driven reporter translation, confirmation, H4 neuroglioma cells, luminescence (AID 1988); type: functional, cell-based
[6] = Luminescence Cell-Based Dose Response HTS to Identify Inhibitors of 5'UTR Stem-Loop Driven Prion Protein mRNA Translation in H4 Neuroglioblastoma Cells. [Related pubchem assays: 1827 (Project Summary), 1813 (Primary HTS)]; type: functional
Cytochrome P450 3A4 = Cytochrome P450 3A4 (Homo sapiens, UniProt P08684);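 also: CYP3A4 tested as one member of a cytochrome P450 panel screen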
Cytochrome P450 2C19 = Cytochrome P450 2C19 (Homo sapiens, UniProt P33261); assay: Cytochrome panel assay with activity outcomes. Panel member name: p450-cyp2c19 Compounds with AC50 equal or less than 10 uM are considered active; type: functional
[7] = inhibitors of intracellular T. cruzi replication, confirmation, NIH3T3 host cells, beta-gal luminescence (AID 2044); type: functional, cell-based;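 also: intracellular parasites grown in NIH/3T3 mouse fibroblasts as host cells; luminescent beta-galactosidase reporter signal from transgenic T. cruzi replicating inside host cells; inhibitors lower the luminescence signal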
[8] = cytotoxicity toward NIH3T3 fibroblasts, dose response, counter-screen, cell-based, ATP luminescence, mouse fibroblasts (AID 2010); type: functional;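 also: cells exposed to compound for about 90 hours before reading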
[9] = test system: Streptococcus sp. 'group A'; assay: growth inhibition of control SK(-) GAS strain, dose response, counter-screen for streptokinase expression inhibitor project, luminescence, kanamycin, BacTiterGlo, confirmation (AID 1900); type: functional, organism-based
[10] = Luminescence Cell-Based Dose Retest to Confirm Inhibitors of Cancer Stem Cells. [Related pubchem assays (depositor defined):AID2717, AID2721]; type: functional; conditions: Homo sapiens
Streptococcus = assay: Group A Streptococcus viability loss, dose response, counter-screen for streptokinase expression inhibitor project, luminescence, BacTiterGlo (AID 1915); type: functional, organism-based;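 also: potency for reduction of bacterial viability or growth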
Cytochrome P450 2C9 = Cytochrome P450 2C9 (Homo sapiens, UniProt P11712)
[11] = control 3'UTR Renilla luciferase suppression, dose response, counter-screen for Shn3 inhibitor project, cell-based, Clone20-Shn3RL, cherry-picked (AID 624133); type: functional
[12] = Shn3 3'UTR reporter inhibitors, dose response, cell-based, Clone20 osteoblasts, firefly luciferase, cherry-picked (AID 624132); type: functional;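 also: firefly luciferase luminescence from reporter carrying the Shn3 3'UTR in osteoblasts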
INS1 = assay: beta cell apoptosis inhibitors, cytokine rescue, dose response, luminescence, retest (AID 449756); type: functional, cell-based; conditions: Rattus norvegicus;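 also: cell death triggered by IL-1 beta plus TNF-alpha plus IFN-gamma mixture; protective hits raise ATP signal compared with cytokine alone wells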

Chain of Cytochrome P450 2C19 (P33261 whole entry): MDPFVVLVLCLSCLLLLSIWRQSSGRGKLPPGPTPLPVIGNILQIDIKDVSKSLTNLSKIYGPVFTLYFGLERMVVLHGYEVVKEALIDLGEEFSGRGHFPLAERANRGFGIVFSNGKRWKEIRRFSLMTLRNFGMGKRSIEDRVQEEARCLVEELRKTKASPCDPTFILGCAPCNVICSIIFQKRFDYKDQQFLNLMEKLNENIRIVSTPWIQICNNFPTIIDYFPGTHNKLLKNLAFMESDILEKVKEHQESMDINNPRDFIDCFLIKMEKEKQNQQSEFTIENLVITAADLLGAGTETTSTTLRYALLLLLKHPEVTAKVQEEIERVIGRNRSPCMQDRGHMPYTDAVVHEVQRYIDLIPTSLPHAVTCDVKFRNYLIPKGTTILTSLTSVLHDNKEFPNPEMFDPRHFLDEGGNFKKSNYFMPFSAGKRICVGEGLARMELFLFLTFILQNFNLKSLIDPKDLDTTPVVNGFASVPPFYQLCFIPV
Chain of Luciferin 4-monooxygenase (P08659 whole entry): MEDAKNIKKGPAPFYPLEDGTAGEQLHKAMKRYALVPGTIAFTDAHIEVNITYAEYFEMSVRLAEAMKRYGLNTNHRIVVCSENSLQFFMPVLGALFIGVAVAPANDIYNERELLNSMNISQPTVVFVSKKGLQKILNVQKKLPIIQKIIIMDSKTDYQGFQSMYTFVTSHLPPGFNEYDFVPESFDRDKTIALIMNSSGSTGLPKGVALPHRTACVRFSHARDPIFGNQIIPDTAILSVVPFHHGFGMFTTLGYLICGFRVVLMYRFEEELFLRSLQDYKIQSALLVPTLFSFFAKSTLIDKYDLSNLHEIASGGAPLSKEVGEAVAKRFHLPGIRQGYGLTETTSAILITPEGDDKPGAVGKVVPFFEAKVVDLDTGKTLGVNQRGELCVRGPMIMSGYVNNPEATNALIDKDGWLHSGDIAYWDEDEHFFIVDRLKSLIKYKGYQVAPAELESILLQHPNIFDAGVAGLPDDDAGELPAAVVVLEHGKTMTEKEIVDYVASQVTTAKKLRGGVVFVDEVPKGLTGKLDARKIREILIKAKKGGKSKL
Chain of Cytochrome P450 3A4 (P08684 whole entry): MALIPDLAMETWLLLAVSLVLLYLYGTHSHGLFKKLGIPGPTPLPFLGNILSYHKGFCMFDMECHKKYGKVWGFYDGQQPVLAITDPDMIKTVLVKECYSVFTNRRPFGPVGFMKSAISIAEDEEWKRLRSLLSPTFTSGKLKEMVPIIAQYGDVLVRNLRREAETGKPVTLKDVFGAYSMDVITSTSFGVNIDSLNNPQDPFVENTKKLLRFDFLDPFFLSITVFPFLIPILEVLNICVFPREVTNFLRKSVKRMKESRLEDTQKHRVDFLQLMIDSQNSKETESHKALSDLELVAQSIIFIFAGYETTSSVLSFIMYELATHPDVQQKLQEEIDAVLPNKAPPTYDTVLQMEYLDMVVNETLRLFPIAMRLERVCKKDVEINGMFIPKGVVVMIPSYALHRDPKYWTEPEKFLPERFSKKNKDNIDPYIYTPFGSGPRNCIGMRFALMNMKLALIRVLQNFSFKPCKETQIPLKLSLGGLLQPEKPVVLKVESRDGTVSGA
Chain of Cytochrome P450 2C9 (P11712 whole entry): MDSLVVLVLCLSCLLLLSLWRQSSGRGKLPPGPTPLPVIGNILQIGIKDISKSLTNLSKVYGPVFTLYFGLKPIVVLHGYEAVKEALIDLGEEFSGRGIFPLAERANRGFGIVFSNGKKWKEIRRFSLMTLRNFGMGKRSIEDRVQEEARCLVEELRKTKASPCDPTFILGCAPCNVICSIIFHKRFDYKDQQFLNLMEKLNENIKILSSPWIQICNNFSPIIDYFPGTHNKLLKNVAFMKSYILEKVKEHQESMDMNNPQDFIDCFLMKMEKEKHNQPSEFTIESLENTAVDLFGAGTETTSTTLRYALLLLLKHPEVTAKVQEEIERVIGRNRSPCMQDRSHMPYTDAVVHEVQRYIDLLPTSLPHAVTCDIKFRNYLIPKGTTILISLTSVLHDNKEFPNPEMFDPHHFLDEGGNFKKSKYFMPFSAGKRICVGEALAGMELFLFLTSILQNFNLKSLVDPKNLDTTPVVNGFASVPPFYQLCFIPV

Cc1cc(=O)n2nc(N3CCCC(C(=O)NCc4ccccc4)C3)sc2n1 (configuration not stated)
EC50 [1]: > 112 µM (not active) | EC50 [2]: > 112 µM (not active)

N#CC(C#N)=NNc1ccc(S(=O)(=O)N2CCCCC2)cc1
EC50 (Protein RecA): 9.78 µM (active) | AC50 [3]: 4.03 µM (active)

CCOc1ccc(S(=O)(=O)N2CCC(C(=O)NCc3cccnc3)CC2)cc1Cl
EC50 [4]: 17.7 µM (active) | EC50 [5]: > 120 µM (not active) | EC50 [6]: > 120 µM (not active)

Cc1ccc(S(=O)(=O)NCc2ccc(C(=O)NC3CC3)cc2)cc1
EC50 [1]: 28.1 µM (active) | EC50 [2]: > 112 µM (not active)

CC(C)(C)c1[nH]nc2c1C(Cc1ccccc1)C(C#N)=C(N)O2 (configuration not stated)
EC50 (Protein RecA): 2.31 µM (active) | AC50 [3]: 13.8 µM (active)

Cc1nc2ccccc2c(=O)n1NC(=O)C1CCC(C(C)(C)C)CC1 (configuration not stated)
EC50 [4]: > 120 µM (not active) | EC50 [5]: > 120 µM (not active) | EC50 [6]: > 120 µM (not active)

CCC(C)Nc1nc(N)c([N+](=O)[O-])c(Nc2ccccc2OC)n1 (configuration not stated)
EC50 [4]: 13.5 µM (active) | EC50 [5]: > 120 µM (not active) | EC50 [6]: > 120 µM (not active)

O=[N+]([O-])c1cc(-c2ccc(C(=S)N3CCOCC3)o2)ccc1Cl
EC50 (Protein RecA): 10.2 µM (active) | AC50 [3]: 39.9 µM (active)

COc1cccc(Nc2ncc3ncc(=O)n(C)c3n2)c1
AC50 (Cytochrome P450 3A4): 12.6 µM (inconclusive) | AC50 (Cytochrome P450 2C19): inconclusive

O=[N+]([O-])c1ccc(Sc2nc(O)c3ccccc3n2)c([N+](=O)[O-])c1
EC50 (Protein RecA): 6.05 µM (active) | EC50 [7]: 1.48 µM (active) | AC50 [3]: 16.9 µM (active) | EC50 [8]: > 60 µM (not active)

COc1ccc(CCN2CC34C=CC(O3)C(C(=O)NCc3ccccc3)C4C2=O)cc1OC (configuration not stated)
AC50 (Cytochrome P450 2C19; read-out: AC50): 14.1 µM (inconclusive)

COc1ccc(C2C(C#N)=C(N)Oc3[nH]nc(C)c32)cc1Cn1cc([N+](=O)[O-])cn1 (configuration not stated)
EC50 (Protein RecA): 3.11 µM (active) | AC50 [3]: 5.32 µM (active)

O=[N+]([O-])c1ccc(O)c(-c2nc(-c3ccccc3)c(-c3cccs3)[nH]2)c1
EC50 [4]: 18.2 µM (active) | EC50 [9]: 1.23 µM (active) | AC50 [10]: 662 nM (active) | EC50 [5]: > 120 µM (not active) | EC50 (Streptococcus): 2.38 µM (active) | EC50 [6]: > 120 µM (not active)

COc1ccc(-n2c(=O)c(C)nc3cnc(Nc4cccc(OC)c4)nc32)cc1
AC50 (Cytochrome P450 3A4): 10 µM (inconclusive) | AC50 (Cytochrome P450 2C9): 39.8 µM (inconclusive) | AC50 (Cytochrome P450 2C19; read-out: AC50): 39.8 µM (inconclusive)

Cc1cc(NC(=O)COC(=O)c2ccc(NS(=O)(=O)c3ccc(C)c(C)c3)cc2)no1
AC50 (Cytochrome P450 2C19; read-out: AC50): 14.1 µM (inconclusive)

COc1ccc(OC)c(-n2c(SCC(N)=O)nnc2-c2c[nH]c3ccccc23)c1
EC50 [1]: > 112 µM (not active) | EC50 [2]: > 112 µM (not active)

O=P(O)(O)CCP(=O)(c1ccccc1)c1ccccc1
AC50 (Cytochrome P450 2C19): inconclusive

FC(F)(F)c1ccccc1-c1nc(NC2CCNCC2)c2ccccc2n1
AC50 (Cytochrome P450 2C19): inconclusive

COc1ccc2cc1Oc1ccc(cc1)CC1c3c(cc(OC)c4c3Oc3cc5c(cc3O4)CCNC5C2)CCN1C (configuration not stated)
EC50 [4]: > 120 µM (not active) | EC50 [5]: 8.03 µM (active) | EC50 [6]: 8.28 µM (active) | EC50 [7]: 0.193 µM (active) | EC50 [8]: 6.68 µM (active)

O=C(Oc1ccc(C(=S)N2CCOCC2)cc1)c1ccc([N+](=O)[O-])cc1[N+](=O)[O-]
EC50 (Protein RecA): 10.6 µM (active) | AC50 [3]: 18.6 µM (active)

COc1ccc(OCCCC(=O)OC(C)C(=O)Nc2ccc(NC(C)=O)cc2)cc1 (configuration not stated)
EC50 [1]: > 112 µM (not active) | EC50 [2]: > 112 µM (not active)

CCCC1C(C#N)=C(N)Oc2[nH]nc(C(C)(C)C)c21 (configuration not stated)
EC50 (Protein RecA): 0.504 µM (active) | AC50 [3]: 2.36 µM (active)

CCOC(=O)c1ccc(NC2c3ccccc3C(=O)N2c2cccnc2)cc1 (configuration not stated)
EC50 [4]: 20 µM (active) | EC50 [5]: 9.83 µM (active) | EC50 [6]: > 120 µM (not active)

C[N+](C)(C)c1nc(N)nc2c1ncn2[C@H]1O[C@@H](CO)[C@@H](O)[C@H]1O
AC50 (Cytochrome P450 2C19): inconclusive

CCC(=O)c1cn(CC(=O)Nc2cccc(C)c2C)c2ccccc12
AC50 [11]: 3.44 µM (active) | AC50 [12]: 1.52 µM (active)

CCCc1cc(=O)oc2c(CN3CCOCC3)c(O)ccc12
AC50 (Cytochrome P450 2C19; read-out: AC50): 25.1 µM (inconclusive)

COc1cccc(-c2[nH]nc3c2C(c2ccc(C)o2)C(C#N)=C(N)O3)c1 (configuration not stated)
AC50 (Cytochrome P450 2C9): 15.8 µM (inconclusive) | EC50 (Protein RecA): 1.53 µM (active) | AC50 [3]: 8.74 µM (active)

CCOc1cc(C(c2c(C)n[nH]c2O)c2c(C)n[nH]c2O)cc(Cl)c1O
EC50 (Protein RecA): 4.74 µM (active) | AC50 [3]: > 380 µM (inactive)

CN1CCc2[nH]nc(-c3n[nH]c4c3CN(C)CC4)c2C1
AC50 (Cytochrome P450 2C19): inconclusive

Cc1ccc(SCc2cc(=O)n(C)[nH]2)cc1
EC50 (Protein RecA): 5.29 µM (active) | AC50 [3]: 13.3 µM (active)

Cc1cc(-c2c(C)[nH]n(-c3ccccc3)c2=O)n(-c2ccccc2)n1
AC50 (Cytochrome P450 2C19; read-out: AC50): 20 µM (inconclusive)

C/C(=N\NC(=O)COc1ccccc1-c1ccccc1)c1ccc(O)cc1O
EC50 [4]: 11.1 µM (active) | EC50 [9]: 3.01 µM (active) | AC50 (INS1): 2.48 µM (active) | EC50 [5]: 9.9 µM (active) | EC50 (Streptococcus): 5.4 µM (active) | EC50 [6]: 9.87 µM (active) | EC50 [7]: 1.24 µM (active) | EC50 [8]: 4.94 µM (active)
